Experimental data taken from US20240390490A1, “PHARMACEUTICAL COMPOSITIONS FOR THE TREATMENT OF CANCERS” (Rutgers, The State University of New Jersey, priority 2021, published 2024).

Assays:
[1] = tested on: YAC-1 target cells; assay: NK cell cytotoxicity of PBMC- and spleen-derived NK cells (calcein AM); format: in vivo, rat
Method: After the end of the drug treatment period, the spleen tissues from control and drug-treated rats were processed, and RBCs and granulocytes were removed from splenocyte suspensions by density centrifugation using Histopaque 1083 (Sigma-Aldrich) as previously described (8). Splenocytes (˜10×10^7 cells per spleen) were extracted from the middle layer, washed with RPMI-1640 (Gibco), and resuspended in buffer (PBS, 0.5% BSA). Splenocytes were incubated with primary Abs conjugated to FITC (BD Biosciences), anti-CD6 (OX52; T cells), anti-CD45RA (OX-33; mature B cells), and anti-RT1B (OX-6; dendritic cells and macrophages), followed by secondary incubation with anti-FITC microbeads, according to the manufacturer's instructions (Miltenyi Biotec). NK cells were then enriched by magnetic separation (negative selection) using an AutoMACS Magnetic Separator (Miltenyi Biotec). The enriched fraction consistently yielded ˜5×10^6 cells per spleen with a purity of ˜80-90%. […] The pelleted cells (PBMC) were counted in a hemocytometer and assayed for viability by trypan blue exclusion. […]
The cytotoxicity of enriched NK cells from PBMC and the spleen against NK-sensitive YAC-1 (ATCC) target cells was determined by calcein AM assays as previously described (8). […] All assays were analyzed and percent cytotoxicity for each sample was calculated as previously described (8).

[2] = tested on: CT26 colon cancer cells; assay: CT26 colon cancer subcutaneous tumors in BALB/c mice; format: in vivo, mouse; conditions: male and female mice
Method: Balb/c mice (both male and female) were obtained from Taconic Biosciences and injected with 1×10^6 cells of CT26. Once palpable tumors develop (˜50 mm3), animals were allocated into 6 groups (3 mice/group). […] Mice were monitored every day. Tumor volume and mice weight were measured daily. Animals were euthanized when the tumor reached 2,000 mm^3. […] For tumor growth study, Mouse CT26 colon cancer cells were grown until about 90% confluence just 1 day before injection. […] Three dimensions of tumor were measured using electronic calipers, and tumor volumes were calculated by the formula as, L×W^2/2. The mean±SE of tumor volume was calculated weekly for each experimental group and the data are expressed as mean absolute tumor volume.

[3] = tested on: MDA-MB-231, MDA-MB-468, and T47D cells; conditions: read-out: IC50 dose; range over cell lines and time of treatment (24, 48, 72 hours)
Method: Cells in media with vehicle treatment are considered control wells. MTT (3-(4,5-dimethyl-2-thiazolyl)-2,5-diphenyl-2H-tetrazolium bromide) was prepared as a stock solution of 5 mg/mL in 1× phosphate-buffered saline (PBS, pH 7.2). At the end of the drug treatment period (24 or 48 or 72 hours), 10 μL of MTT solution was added to each well. After incubation for 4 hours at 37° C., 100 μL of solubilizing buffer (10% sodium dodecyl sulfate dissolved in 0.01 N HCl) was added to each well. After a 15-minute incubation at 37° C., the 96-well plate was read by a plate reader at 590 nm for absorbance density values to determine the cell viability. The cell viability (percentage of control) is calculated by using the following formula: (OD of treated well (−blank))/(mean OD control well (−blank))×100. […] Drug effects on these cells were determined in quadruplicate wells in three independent experiments.

Row | Compound | NK cell cytolytic activity [1] | tumor volume [2] | IC50 [3] [µM]
1 | CC(C)NCC(O)COc1cccc2ccccc12 (stereo not drawn) [PRO, propranolol] | elevated | decreasing tumor volume | –
2 | CC1(C)SSC(C)(C)[C@@H](NC(=O)[C@@H](N)Cc2ccc(O)cc2)C(=O)NCC(=O)N[C@@H](Cc2ccccc2)C(=O)N[C@H]1C(=O)O [DPDPE, (D-Pen^2, D-Pen^5)-enkephalin] | – | – | 115 to 140
